Measured values reported in patent publication US20120322752A1, “SOLID DISPERSIONS CONTAINING 20-O-beta-D-GLUCOPYRANOSYL-20(S)-PROTOPANAXADIOL” (priority 2009, published 2012).

Experiments:
[1] = oral administration; cited from earlier work
[2] = aqueous solution including 40% of a cosolvent and 10% of a surfactant or inclusion compound forming agent (hydroxypropyl-β-cyclodextrin); cited from earlier work
[3] = Dissolution test (USP paddle method, purified water); type: physicochemical; details: after 3 hours; 900 mL purified water, paddle 50 rpm, 25 mg IH-901 equivalent
Method: The dissolution profile of a drug from the solid dispersion prepared in Example 2 was evaluated. IH-901, which had been used to prepare the solid dispersion of […], was used as a control group. The dissolution test was carried out under the conditions that the second method (paddle method) of the dissolution test methods in the general test method of the United states Phamacopoeia was used, 900 mL of purified water was used as a test liquid, and the rotational speed of a paddle was 50 rpm. 25 mg of IH-901 (control group) or the solid dispersion prepared in Example 2 corresponding to 25 mg of IH-901 was dissolved in a dissolution liquid, left for 180 minutes and then filtered. Then, the content of IH-901 in the filtered solution was measured by high performance liquid chromatography. The high performance liquid chromatograph is commercially available from Hitachi Co., Ltd. The analysis of high performance liquid chromatography was conducted under the conditions of a C18 column (Luna, 5 um, 250 mm, Phenomenex Corp., U.S.A), mobile phase of acetonitrile:water (70:30), a flow rate of 1 mL/min, a detection wavelength of 205 nm and an injection volume of 50 ul. In FIG. 1, the X-axis represents time passage, and the Y-axis represents dissolution rate (%). Further, in FIG. 1, the raw material is represented as ◯, and the solid dispersion prepared in Example 2 is represented by […].

## CC(C)=CCC[C@](C)(O[C@@H]1O[C@H](CO)[C@@H](O)[C@H](O)[C@H]1O)[C@H]1CC[C@]2(C)[C@@H]1[C@H](O)C[C@@H]1[C@@]3(C)CC[C@H](O)C(C)(C)[C@@H]3CC[C@]12C [IH-901, 20-O-β-D-glucopyranosyl-20(S)-protopanaxadiol]
[1]
  bioavailability: 3.5%
[2]
  solubility of IH-901 in an aqueous solution: ≤ 10000 µg/mL
[3]
  dissolution rate: about 3%
